{"source": "BigSolDB 2.1", "data": [{"smiles": "Cc1coc2c1C(=O)C(=O)c1c-2ccc2c(C)cccc12", "values": [{"measurement": "solubility (mole fraction)", "setting": "in DMF, 278.15 K", "result": 0.000919}, {"measurement": "solubility (mole fraction)", "setting": "in DMF, 283.15 K", "result": 0.00106}, {"measurement": "solubility (mole fraction)", "setting": "in DMF, 288.15 K", "result": 0.00125}, {"measurement": "solubility (mole fraction)", "setting": "in DMF, 293.15 K", "result": 0.00146}, {"measurement": "solubility (mole fraction)", "setting": "in DMF, 298.15 K", "result": 0.00169}, {"measurement": "solubility (mole fraction)", "setting": "in DMF, 303.15 K", "result": 0.00193}, {"measurement": "solubility (mole fraction)", "setting": "in DMF, 308.15 K", "result": 0.0022}, {"measurement": "solubility (mole fraction)", "setting": "in DMF, 313.15 K", "result": 0.00249}, {"measurement": "solubility (mole fraction)", "setting": "in DMF, 318.15 K", "result": 0.00288}, {"measurement": "solubility (mole fraction)", "setting": "in DMF, 323.15 K", "result": 0.00335}, {"measurement": "solubility (mole fraction)", "setting": "in acetone, 278.15 K", "result": 0.00103}, {"measurement": "solubility (mole fraction)", "setting": "in acetone, 283.15 K", "result": 0.0012}, {"measurement": "solubility (mole fraction)", "setting": "in acetone, 288.15 K", "result": 0.0014}, {"measurement": "solubility (mole fraction)", "setting": "in acetone, 293.15 K", "result": 0.00164}, {"measurement": "solubility (mole fraction)", "setting": "in acetone, 298.15 K", "result": 0.00194}, {"measurement": "solubility (mole fraction)", "setting": "in acetone, 303.15 K", "result": 0.00221}, {"measurement": "solubility (mole fraction)", "setting": "in acetone, 308.15 K", "result": 0.00253}, {"measurement": "solubility (mole fraction)", "setting": "in acetone, 313.15 K", "result": 0.00287}, {"measurement": "solubility (mole fraction)", "setting": "in acetone, 318.15 K", "result": 0.00324}, {"measurement": "solubility (mole fraction)", "setting": "in acetone, 323.15 K", "result": 0.0036}, {"measurement": "solubility (mole fraction)", "setting": "in ethanol, 278.15 K", "result": "6.4e-05"}, {"measurement": "solubility (mole fraction)", "setting": "in ethanol, 283.15 K", "result": "8.08e-05"}, {"measurement": "solubility (mole fraction)", "setting": "in ethanol, 288.15 K", "result": "9.82e-05"}, {"measurement": "solubility (mole fraction)", "setting": "in ethanol, 293.15 K", "result": 0.00012}, {"measurement": "solubility (mole fraction)", "setting": "in ethanol, 298.15 K", "result": 0.000144}, {"measurement": "solubility (mole fraction)", "setting": "in ethanol, 303.15 K", "result": 0.000167}, {"measurement": "solubility (mole fraction)", "setting": "in ethanol, 308.15 K", "result": 0.000198}, {"measurement": "solubility (mole fraction)", "setting": "in ethanol, 313.15 K", "result": 0.000233}, {"measurement": "solubility (mole fraction)", "setting": "in ethanol, 318.15 K", "result": 0.000275}, {"measurement": "solubility (mole fraction)", "setting": "in ethanol, 323.15 K", "result": 0.000332}, {"measurement": "solubility (mole fraction)", "setting": "in ethylene glycol, 278.15 K", "result": "8.39e-05"}, {"measurement": "solubility (mole fraction)", "setting": "in ethylene glycol, 283.15 K", "result": "9.79e-05"}, {"measurement": "solubility (mole fraction)", "setting": "in ethylene glycol, 288.15 K", "result": 0.000114}, {"measurement": "solubility (mole fraction)", "setting": "in ethylene glycol, 293.15 K", "result": 0.000132}, {"measurement": "solubility (mole fraction)", "setting": "in ethylene glycol, 298.15 K", "result": 0.000152}, {"measurement": "solubility (mole fraction)", "setting": "in ethylene glycol, 303.15 K", "result": 0.000175}, {"measurement": "solubility (mole fraction)", "setting": "in ethylene glycol, 308.15 K", "result": 0.000201}, {"measurement": "solubility (mole fraction)", "setting": "in ethylene glycol, 313.15 K", "result": 0.000232}, {"measurement": "solubility (mole fraction)", "setting": "in ethylene glycol, 318.15 K", "result": 0.000269}, {"measurement": "solubility (mole fraction)", "setting": "in ethylene glycol, 323.15 K", "result": 0.000317}, {"measurement": "solubility (mole fraction)", "setting": "in isopropanol, 278.15 K", "result": 0.00029}, {"measurement": "solubility (mole fraction)", "setting": "in isopropanol, 283.15 K", "result": 0.000334}, {"measurement": "solubility (mole fraction)", "setting": "in isopropanol, 288.15 K", "result": 0.000395}, {"measurement": "solubility (mole fraction)", "setting": "in isopropanol, 293.15 K", "result": 0.000456}, {"measurement": "solubility (mole fraction)", "setting": "in isopropanol, 298.15 K", "result": 0.000535}, {"measurement": "solubility (mole fraction)", "setting": "in isopropanol, 303.15 K", "result": 0.000626}, {"measurement": "solubility (mole fraction)", "setting": "in isopropanol, 308.15 K", "result": 0.000729}, {"measurement": "solubility (mole fraction)", "setting": "in isopropanol, 313.15 K", "result": 0.000849}, {"measurement": "solubility (mole fraction)", "setting": "in isopropanol, 318.15 K", "result": 0.00101}, {"measurement": "solubility (mole fraction)", "setting": "in isopropanol, 323.15 K", "result": 0.0012}, {"measurement": "solubility (mole fraction)", "setting": "in methanol, 278.15 K", "result": "5.56e-05"}, {"measurement": "solubility (mole fraction)", "setting": "in methanol, 283.15 K", "result": "6.11e-05"}, {"measurement": "solubility (mole fraction)", "setting": "in methanol, 288.15 K", "result": "6.79e-05"}, {"measurement": "solubility (mole fraction)", "setting": "in methanol, 293.15 K", "result": "7.64e-05"}, {"measurement": "solubility (mole fraction)", "setting": "in methanol, 298.15 K", "result": "8.61e-05"}, {"measurement": "solubility (mole fraction)", "setting": "in methanol, 303.15 K", "result": "9.8e-05"}, {"measurement": "solubility (mole fraction)", "setting": "in methanol, 308.15 K", "result": 0.000111}, {"measurement": "solubility (mole fraction)", "setting": "in methanol, 313.15 K", "result": 0.00013}, {"measurement": "solubility (mole fraction)", "setting": "in methanol, 318.15 K", "result": 0.000154}, {"measurement": "solubility (mole fraction)", "setting": "in methanol, 323.15 K", "result": 0.000182}, {"measurement": "solubility (mole fraction)", "setting": "in n-butanol, 278.15 K", "result": 0.000574}, {"measurement": "solubility (mole fraction)", "setting": "in n-butanol, 283.15 K", "result": 0.000636}, {"measurement": "solubility (mole fraction)", "setting": "in n-butanol, 288.15 K", "result": 0.000706}, {"measurement": "solubility (mole fraction)", "setting": "in n-butanol, 293.15 K", "result": 0.000793}, {"measurement": "solubility (mole fraction)", "setting": "in n-butanol, 298.15 K", "result": 0.000903}, {"measurement": "solubility (mole fraction)", "setting": "in n-butanol, 303.15 K", "result": 0.00103}, {"measurement": "solubility (mole fraction)", "setting": "in n-butanol, 308.15 K", "result": 0.00117}, {"measurement": "solubility (mole fraction)", "setting": "in n-butanol, 313.15 K", "result": 0.00135}, {"measurement": "solubility (mole fraction)", "setting": "in n-butanol, 318.15 K", "result": 0.00154}, {"measurement": "solubility (mole fraction)", "setting": "in n-butanol, 323.15 K", "result": 0.00178}, {"measurement": "solubility (mole fraction)", "setting": "in n-propanol, 278.15 K", "result": 0.000448}, {"measurement": "solubility (mole fraction)", "setting": "in n-propanol, 283.15 K", "result": 0.00051}, {"measurement": "solubility (mole fraction)", "setting": "in n-propanol, 288.15 K", "result": 0.000575}, {"measurement": "solubility (mole fraction)", "setting": "in n-propanol, 293.15 K", "result": 0.00067}, {"measurement": "solubility (mole fraction)", "setting": "in n-propanol, 298.15 K", "result": 0.000756}, {"measurement": "solubility (mole fraction)", "setting": "in n-propanol, 303.15 K", "result": 0.000866}, {"measurement": "solubility (mole fraction)", "setting": "in n-propanol, 308.15 K", "result": 0.000987}, {"measurement": "solubility (mole fraction)", "setting": "in n-propanol, 313.15 K", "result": 0.00113}, {"measurement": "solubility (mole fraction)", "setting": "in n-propanol, 318.15 K", "result": 0.0013}, {"measurement": "solubility (mole fraction)", "setting": "in n-propanol, 323.15 K", "result": 0.00151}, {"measurement": "solubility (mole fraction)", "setting": "in water, 278.15 K", "result": "5.28e-08"}, {"measurement": "solubility (mole fraction)", "setting": "in water, 283.15 K", "result": "5.74e-08"}, {"measurement": "solubility (mole fraction)", "setting": "in water, 288.15 K", "result": "6.23e-08"}, {"measurement": "solubility (mole fraction)", "setting": "in water, 293.15 K", "result": "6.81e-08"}, {"measurement": "solubility (mole fraction)", "setting": "in water, 298.15 K", "result": "7.47e-08"}, {"measurement": "solubility (mole fraction)", "setting": "in water, 303.15 K", "result": "8.25e-08"}, {"measurement": "solubility (mole fraction)", "setting": "in water, 308.15 K", "result": "9.26e-08"}, {"measurement": "solubility (mole fraction)", "setting": "in water, 313.15 K", "result": "1.04e-07"}, {"measurement": "solubility (mole fraction)", "setting": "in water, 318.15 K", "result": "1.17e-07"}, {"measurement": "solubility (mole fraction)", "setting": "in water, 323.15 K", "result": "1.34e-07"}]}]}
